SMILES strings stand for the structures.

Broadly, the IC50 is the point on the concentration scale where inhibition reaches its midpoint. Read a high IC50 as lower potency.

Assay [1] deals with T1, human full length PIK3KA H1047R mutant (p110α/p85α complex) (Homo sapiens, UniProt P42336, H1047R).
T1 construct: Recombinant, catalytically active human full length PIK3KA Wild-type and H1047R mutant were purchased; 6xHis (N); purchased EMD Millipore Sigma 14-792M
Kind of assay: PI3K-Alpha Kinase (PIK3CA) biochemical activity, H1047R mutant (ADP-Glo). The conditions noted are these: Soy PI lipid substrate, 20 uM ATP. The text has this:
(§1) PI3K-Alpha Kinase (PIK3CA) Activity, Wild-Type and H1047R Mutant and Determining IC50 Values for Inhibitors
(§2) Recombinant, catalytically active human full length PIK3KA Wild-type and H1047R mutant were purchased as 1:1 complex of N-terminal 6×his tagged p110α (catalytic) and untagged p85α, (regulatory subunit) from EMD Millipore Sigma (cat. no. 14-602M and 14-792M, respectively). PIP2diC8 (Avanti Polar Lipids Inc., cat. no. 850185) or Soy PI (Avanti Polar Lipids Inc., cat. No. 840044P) was used as lipid substrate. PIP2diC8 or PI lyophilized powder was dissolved in milliQ water to a concentration of 1 mM just before use. 10 mM stock compounds in DMSO were serially diluted 1:3 to generate a 10-point curve and plated using an acoustic liquid handler system (Echo 550 series instrument, Labcyte). A 10× intermediate compound plate (200 uM starting compound concentration and 10% DMSO) was prepared before starting the reaction. A typical reaction mixture (50 uL) comprised 40 mM HEPES buffer, pH 7.4, 25 mM MgCl2, 0.01% v/v triton-X-100, 1% v/v DMSO, 20 mM NaCl, 1-5 nM WT or H1047R PI3K protein, 20 uM ATP, and 50 uM PIP2diC8 or Soy PI. 1% DMSO buffer alone without test compound was employed as MAX control (full activity in the absence of any inhibitor), and no enzyme control was used to determine the level of background Adenosine 5′-diphosphate (ADP) (MIN control). First, Wild-type (WT) and H1047R mutant protein in kinase buffer with all components except ATP were incubated with or without compound at 27° C. for 1 h. After the pre-incubation, the reaction was initiated by the addition of […] (20 uM final concentration). The reaction was allowed to proceed until about 10% conversion of ATP (2 uM ADP) at 27° C. After that time, 5 uL of reaction was mixed with 5 uL of ADP-Kinase Glo Reagent (ADP-Glo Kinase assay kit, Promega cat. no. V9102) supplemented with MgCl2 10 mM to stop the reaction and deplete the remaining ATP for 40 min at room temperature. Then, 10 uL of Kinase Detection Reagent (ADP-Glo Kinase assay kit, Promega cat. no. V9102) was added to simultaneously convert ADP to ATP and allow the newly synthesized ATP to be measured using a luciferase/luciferin reaction. After 30 min at room temperature the light generated was measured using a luminometer (EnVision plate reader, Perkin Elmer). Process data through Genedata-Screener tool. Relative IC50 values are determined using luminescence units by calculating percent inhibition with respect to on-plate “MIN” and “MAX” controls. Data was analyzed using a 4-parameter nonlinear logistic equation (four-parameter logistic concentration-response curve):
(§3) Y=bot+[(top−bot)/1+(x/IC50)slope]
(§4) where Y=% inhibition, X=concentration yielding y % inhibition, Bottom=minimum value of y attained by curve, Top=maximum value of y attained by curve and Slope=steepness of curve at IC50.
(§5) % Inh=[(median Max−x/median Max−median Min)]·100
(§6) IC50: concentration of compound that reduces a given response (ligand binding, enzyme response) by 50%. IC50 relative: concentration giving half the compound's maximum response.
(§7) For IC50 values shown in Table A, “A” means IC50<0.5 μM; “B” means IC50 ranging between 0.5 μM and 1.0 μM; “C” means IC50 ranging between 1 μM and 5 μM; “D” means IC50 ranging between 5 μM and 10 μM; “E” means IC50>10 μM.

The target in assay [2] is T2, human full length PIK3KA Wild-type (p110α/p85α complex) (Homo sapiens, UniProt P42336).
T2 construct: Recombinant, catalytically active human full length PIK3KA Wild-type and H1047R mutant were purchased; 6xHis (N); purchased EMD Millipore Sigma 14-602M
In words: PI3K-Alpha Kinase (PIK3CA) biochemical activity, wild-type (ADP-Glo). The conditions noted are these: Soy PI lipid substrate, 20 uM ATP.
Excerpt: as §1, §2, §3, §4, §5, §6, §7
(In ADP-Glo the light output rises with the ADP produced.)

T1 sequence (P42336 whole entry H1047R): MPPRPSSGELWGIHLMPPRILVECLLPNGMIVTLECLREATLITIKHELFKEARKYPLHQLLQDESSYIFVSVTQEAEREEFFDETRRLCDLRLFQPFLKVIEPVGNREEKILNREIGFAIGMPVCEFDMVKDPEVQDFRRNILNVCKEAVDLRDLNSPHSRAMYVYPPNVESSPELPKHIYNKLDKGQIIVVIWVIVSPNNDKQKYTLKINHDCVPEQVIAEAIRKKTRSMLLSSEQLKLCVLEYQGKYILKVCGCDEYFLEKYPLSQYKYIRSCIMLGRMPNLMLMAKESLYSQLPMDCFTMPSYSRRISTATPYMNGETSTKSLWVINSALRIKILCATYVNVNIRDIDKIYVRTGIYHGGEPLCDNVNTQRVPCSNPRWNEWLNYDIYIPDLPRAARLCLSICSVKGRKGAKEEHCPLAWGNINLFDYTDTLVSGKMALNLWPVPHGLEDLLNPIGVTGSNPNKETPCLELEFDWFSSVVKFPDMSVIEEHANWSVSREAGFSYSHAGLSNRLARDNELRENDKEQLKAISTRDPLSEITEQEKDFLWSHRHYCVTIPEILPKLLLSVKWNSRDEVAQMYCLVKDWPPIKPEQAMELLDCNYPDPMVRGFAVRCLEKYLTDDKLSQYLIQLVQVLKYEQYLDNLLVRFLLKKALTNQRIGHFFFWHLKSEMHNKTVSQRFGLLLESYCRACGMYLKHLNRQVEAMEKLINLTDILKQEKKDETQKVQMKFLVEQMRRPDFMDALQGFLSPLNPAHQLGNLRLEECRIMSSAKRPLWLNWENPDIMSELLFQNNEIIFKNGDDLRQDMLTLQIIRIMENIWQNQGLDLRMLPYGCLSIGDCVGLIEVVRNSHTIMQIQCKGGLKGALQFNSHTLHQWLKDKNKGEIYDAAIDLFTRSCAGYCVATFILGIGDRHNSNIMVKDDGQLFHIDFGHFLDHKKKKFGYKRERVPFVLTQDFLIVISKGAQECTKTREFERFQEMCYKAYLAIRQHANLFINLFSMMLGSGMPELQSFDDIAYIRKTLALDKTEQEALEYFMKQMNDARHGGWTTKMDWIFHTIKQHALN
T1 sequence (P27986 whole entry partner): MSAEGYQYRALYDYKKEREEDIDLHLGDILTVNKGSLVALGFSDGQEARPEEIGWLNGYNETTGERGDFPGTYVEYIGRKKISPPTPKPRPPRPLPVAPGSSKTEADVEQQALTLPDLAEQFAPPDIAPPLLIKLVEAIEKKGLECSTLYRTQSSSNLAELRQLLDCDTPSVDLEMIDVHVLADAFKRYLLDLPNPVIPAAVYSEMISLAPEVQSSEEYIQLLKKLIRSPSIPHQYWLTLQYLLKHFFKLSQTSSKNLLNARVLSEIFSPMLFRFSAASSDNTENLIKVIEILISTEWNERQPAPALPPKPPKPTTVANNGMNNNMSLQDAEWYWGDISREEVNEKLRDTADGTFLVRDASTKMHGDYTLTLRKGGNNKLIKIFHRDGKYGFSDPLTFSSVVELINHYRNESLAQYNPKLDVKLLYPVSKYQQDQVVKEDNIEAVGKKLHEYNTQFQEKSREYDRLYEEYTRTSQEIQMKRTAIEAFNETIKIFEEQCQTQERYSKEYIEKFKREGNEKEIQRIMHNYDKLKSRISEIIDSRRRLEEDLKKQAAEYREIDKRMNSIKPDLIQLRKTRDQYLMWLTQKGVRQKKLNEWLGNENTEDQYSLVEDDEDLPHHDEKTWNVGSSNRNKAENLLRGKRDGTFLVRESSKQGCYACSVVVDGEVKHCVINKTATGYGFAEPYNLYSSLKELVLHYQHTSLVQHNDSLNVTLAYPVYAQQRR

For `COc1cccc(-n2cc(-c3oc4c(C(C)Nc5ccccc5C(=O)O)cc(C)cc4c(=O)c3C)cn2)c1` (single isomer, unassigned) [Example 66, 2-[1-2-[1-(3-Methoxyphenyl)pyrazol-4-yl]-3,6-dimethyl-4-oxo-chromen-8-yl]ethylamino]benzoic acid, Isomer 1,2,2,2-trifluoroacetic acid], the IC50 in assay [1] is less than 500 nM; in assay [2] it was 500 to 1000 nM.
Consider `Cc1cc(C(C)Nc2ccccc2C(=O)O)c2oc(-c3ccccn3)c(C(F)(F)F)c(=O)c2c1` (single isomer, unassigned) [Example 67, 2-[1-[6-Methyl-4-oxo-2-(2-pyridyl)-3-(trifluoromethyl)chromen-8-yl]ethylamino]benzoic acid, Isomer 1,2,2,2-trifluoroacetic acid], for which the figures for the IC50 in assay [1] and in assay [2] were less than 500 nM and 1000 to 5000 nM, respectively.
Regarding `Cc1c(-c2ccccn2)oc2c(C(C)Nc3ccccc3C(=O)O)cc(F)cc2c1=O` (single isomer, unassigned) [Example 68, 2-[1-[6-Fluoro-3-methyl-4-oxo-2-(2-pyridyl)chromen-8-yl]ethylamino]benzoic acid, Isomer 1,2,2,2-trifluoroacetic acid], the IC50 was less than 500 nM in assay [1] and 5000 to 10000 nM in assay [2].
The matching figures for `COc1ccc(-n2cc(-c3oc4c(C(C)Nc5ccccc5C(=O)O)cc(C)cc4c(=O)c3C)cn2)cc1` (single isomer, unassigned) [Example 69, 2-[1-[2-[1-(4-Methoxyphenyl)pyrazol-4-yl]-3,6-dimethyl-4-oxo-chromen-8-yl]ethylamino]benzoic acid, Isomer 1,2,2,2-trifluoroacetic acid]: less than 500 nM and 500 to 1000 nM.
The corresponding values for `Cc1cc(C(C)Nc2ccccc2C(=O)O)c2oc(-c3cccc(C(F)F)n3)c(C)c(=O)c2c1` (single isomer, unassigned) [Example 77, 2-[1-[2-[6-(Difluoromethyl)-2-pyridyl]-3,6-dimethyl-4-oxo-chromen-8-yl]ethylamino]benzoic acid, Isomer 1,2,2,2-trifluoroacetic acid] are less than 500 nM and 500 to 1000 nM.
Consider `Cc1cc(C(C)Nc2ccccc2C(=O)O)c2oc(-c3cnn(-c4ccc(C(F)(F)F)cc4)c3)cc(=O)c2c1` (single isomer, unassigned) [Example 87, 2-[1-[6-Methyl-4-oxo-2-[1-[4-(trifluoromethyl)phenyl]pyrazol-4-yl]chromen-8-yl]ethylamino]benzoic acid, Isomer 2,2,2,2-trifluoroacetic acid], for which the IC50 in assay [1] is less than 500 nM; in assay [2] it was 5000 to 10000 nM.
As for `Cc1cc(C(C)Nc2ccccc2C(=O)O)c2oc(-c3cnn(-c4ccc(S(C)(=O)=O)cc4)c3)cc(=O)c2c1` (single isomer, unassigned) [Example 88, 2-[1-[6-Methyl-2-[1-(4-methylsulfonylphenyl)pyrazol-4-yl]-4-oxo-chromen-8-yl]ethylamino]benzoic acid, Isomer 2,2,2,2-trifluoroacetic acid], the IC50 in assay [1] is less than 500 nM; in assay [2] it was 1000 to 5000 nM.
Turning to `Cc1cc(C(C)Nc2ccccc2C(=O)O)c2oc(-c3cnn(-c4ccc5c(c4)OC(F)(F)O5)c3)cc(=O)c2c1` (single isomer, unassigned) [Example 91, 2-[1-[2-[1-(2,2-Difluoro-1,3-benzodioxol-5-yl)pyrazol-4-yl]-6-methyl-4-oxo-chromen-8-yl]ethylamino]benzoic acid, Isomer 2,2,2,2-trifluoroacetic acid], the IC50 is 500 to 1000 nM in assay [1] and greater than 10000 nM in assay [2].
Consider `COc1ccc(-n2cc(-c3cc(=O)c4cc(C)cc(C(C)Nc5ccccc5C(=O)O)c4o3)cn2)cc1F` (single isomer, unassigned) [Example 92, 2-[1-[2-[1-(3-Fluoro-4-methoxy-phenyl)pyrazol-4-yl]-6-methyl-4-oxo-chromen-8-yl]ethylamino]benzoic acid, Isomer 2,2,2,2-trifluoroacetic acid], for which the IC50 in assay [1] was less than 500 nM; in assay [2], 5000 to 10000 nM.
The matching figures for `Cc1cc(C(C)Nc2ccccc2C(=O)O)c2oc(-c3cnn(-c4ccc(OC(F)(F)F)cc4)c3)cc(=O)c2c1` (single isomer, unassigned) [Example 93, 2-[1-[6-Methyl-4-oxo-2-[1-[4-(trifluoromethoxy)phenyl]pyrazol-4-yl]chromen-8-yl]ethylamino]benzoic acid, Isomer 2,2,2,2-trifluoroacetic acid]: 500 to 1000 nM and greater than 10000 nM.
As to `COc1cc(-n2cc(-c3cc(=O)c4cc(C)cc(C(C)Nc5ccccc5C(=O)O)c4o3)cn2)ccc1C#N` (single isomer, unassigned) [Example 94, 2-[1-[2-[1-(4-Cyano-3-methoxy-phenyl)pyrazol-4-yl]-6-methyl-4-oxo-chromen-8-yl]ethylamino]benzoic acid, Isomer 2,2,2,2-trifluoroacetic acid], the IC50 is less than 500 nM in assay [1] and 1000 to 5000 nM in assay [2].
As to `Cc1cc(C(C)Nc2ccc(F)c(F)c2C(=O)O)c2oc(-c3cnn(-c4ccc(C#N)cc4)c3)cc(=O)c2c1` (single isomer, unassigned) [Example 95, 2,3-Difluoro-6-[1-[2-[1-(4-cyanophenyl)pyrazol-4-yl]-6-methyl-4-oxo-chromen-8-yl]ethylamino]benzoic acid, Isomer 1,2,2,2-trifluoroacetic acid], the IC50 was 1000 to 5000 nM in assay [1] and greater than 10000 nM in assay [2].
The corresponding values for `Cc1cc(C(C)Nc2ccccc2C(=O)O)c2oc(-c3cnc(C#CC(C)(C)O)nc3)cc(=O)c2c1` (single isomer, unassigned) [Example 102, 2-[1-[2-[2-(3-Hydroxy-3-methyl-but-1-ynyl)pyrimidin-5-yl]-6-methyl-4-oxo-chromen-8-yl]ethylamino]benzoic acid, Isomer 2,2,2,2-trifluoroacetic acid] are 500 to 1000 nM and 5000 to 10000 nM.
On to `Cc1cc(C(C)Nc2ccccc2C(=O)O)c2oc(-c3cn(-c4ccc(C#N)cc4)cn3)cc(=O)c2c1` (single isomer, unassigned) [Example 103, 2-[1-[2-[1-(4-Cyanophenyl)imidazol-4-yl]-6-methyl-4-oxo-chromen-8-yl]ethylamino]benzoic acid, Isomer 2,2,2,2-trifluoroacetic acid], for which the results for the IC50 in assay [1] and in assay [2] were less than 500 nM and 5000 to 10000 nM, respectively.
In the case of `Cc1cc(C(C)Nc2ccccc2C(=O)O)c2oc(-c3cnn(-c4ccc(C#N)cc4F)c3)cc(=O)c2c1` (single isomer, unassigned) [Example 104, 2-[1-[2-[1-(4-Cyano-2-fluoro-phenyl)pyrazol-4-yl]-6-methyl-4-oxo-chromen-8-yl]ethylamino]benzoic acid, Isomer 2,2,2,2-trifluoroacetic acid], the IC50 was 500 to 1000 nM in assay [1] and greater than 10000 nM in assay [2].
`COc1ncc(-n2cc(-c3cc(=O)c4cc(C)cc(C(C)Nc5ccccc5C(=O)O)c4o3)cn2)cn1` (single isomer, unassigned) [Example 105, 2-[1-[2-[1-(2-Methoxypyrimidin-5-yl)pyrazol-4-yl]-6-methyl-4-oxo-chromen-8-yl]ethylamino]benzoic acid, Isomer 2,2,2,2-trifluoroacetic acid]: the IC50 was 500 to 1000 nM in assay [1] and greater than 10000 nM in assay [2].

For the origin of these results see patent publication US20230014445A1, “ALLOSTERIC CHROMENONE INHIBITORS OF PHOSPHOINOSITIDE 3-KINASE (PI3K) FOR THE TREATMENT OF DISEASE” (Petra Pharma Corporation, priority 2021, published 2023).
